Drawing on US20110151089A1, “COMPOSITION CONTAINING MAGNESIUM GLUTAMATE WHICH CAN ENHANCE THE SALTINESS OF FOODS AND DRINKS” (priority 2008, published 2011), this text covers Strength of saltiness for one compound.

The nature of the experiment: Sensory evaluation test of miso sample solutions without broth, experts' panel of six adult persons (Example 2). The arrangement: species or system human. To be noted: converted sodium chloride concentration about 0.625%, scale with 7 gradations, from 0 to 7. From the text:
A scale with 7 gradations, from 0 to 7, was used to evaluate the “strength of saltiness” and “overall strength of miso soup flavor”.

For `N[C@@H](CCC(=O)[O-])C(=O)[O-].[Mg+2]` [MDG, magnesium glutamate], the Strength of saltiness result is given as “improved”.
